From the NIST ThermoML archive (doi:10.1016/j.fluid.2017.10.025)
± gives the expanded uncertainty stated by the source.

Experiments:
[1] = refractive index (Na D-line) (dimensionless); conditions: 298.15 K; 101.33 kPa; Liquid; 2AWJ refractometer
[2] = 293.15 K; 101.33 kPa; Liquid; buoyancy

| Structure (SMILES) | refractive index [1] | mass density [2] |
| --- | --- | --- |
| C=CCO [2-propenol] | 1.4129 ± 0.0003 | 855 ± 0.7 kg/m3 |
| O [water] | 1.3327 ± 0.0002 | 998.3 ± 0.6 kg/m3 |
